Experimental findings from the SangsterLogP compilation are described below.

A short description of data set [1]: method code SF-GLC, from DOI: 10.1021/jm00326a002, PMID: 14332653.
Data set [2] can be described thus: method code SF-AS, from DOI: 10.1021/jm00326a002, PMID: 14332653.
The nature of data set [3]: method code SF, from DOI: 10.1021/jm00326a002, PMID: 14332653.

Molecules are shown by their SMILES.

In general, logP refers to a log measure of how a compound divides between an organic and an aqueous phase. Low readings indicate lower lipophilicity, high ones higher lipophilicity. In the case of `CC(=O)CCC1CC1`, in data set [1], the lipophilicity (logP) came out at 1.5.
Compound `NC(=O)CCc1ccccc1` had a logP in data set [2] of 0.91.
As for `COC(=O)CCc1ccccc1`, the logP in data set [2] was determined as 2.32.
Consider `N#CCCCc1ccccc1`, for which the lipophilicity (logP) in data set [2] came out at 2.21.
Consider `C=CCCC(C)=O`, for which the logP in data set [2] is 1.02.
On the same count and under the same terms, the same measure for `CCCCSC#N`: 2.03; for `C#Cc1ccccc1`: 2.53.
The compound `COCCCc1ccccc1` had a logP in data set [2] of 2.7.
`COC(=O)Cc1ccccc1` displayed a logP in data set [2] of 1.83.
On the same count and under the same terms, for `c1ccc2ncccc2c1` the value was 2.03; for `CC(=O)CCCc1ccccc1`, 2.42; for `CC(=O)Cc1ccccc1`, 1.44.
As for `COC(=O)CCC(C)=O`, the logP in data set [3] was -0.13.
In data set [2], `CN(C)CCCc1ccccc1` came in with a logP of 2.73.
Regarding `ClCCc1ccccc1`, the logP in data set [2] was determined as 2.95.
`NC(=O)CCCc1ccccc1`: the logP in data set [2] amounted to 1.41.
In the case of `N#CCCc1ccccc1`, the logP in data set [2] was found to be 1.72.
For `COC(=O)CCCc1ccccc1`, the log partition coefficient (logP) in data set [2] worked out at 2.77.
In turn, `BrCCc1ccccc1` registered a logP in data set [2] of 3.09.
The compound `FCCCc1ccccc1` gave a logP in data set [2] of 2.95.
Take `CC(=O)OCCc1ccccc1`: the logP in data set [2] amounted to 2.3.
Compound `BrCCCc1ccccc1` registered a logP in data set [2] of 3.72.
In the case of `COC(=O)CCCCC(C)=O`, the logP in data set [3] amounted to 0.55.
